Test results from article PMC11984924, “Dipeptidic Phosphonates: Potent Inhibitors of Pseudomonas aeruginosa Elastase B Showing Efficacy in a Murine Keratitis Model” (Advanced Science, 2025).

Target: T1, cyclooxygenase 1 (COX1) (Homo sapiens, UniProt P23219)
T1 construct: Eurofins Cerep SA (CRO)
Assay: SafetyScreen44: COX1
Type: biochemical
From the text: Moreover, we explored the safety profile of frontrunner (R)‐30 in more detail in order to detect additional crucial off‐target interactions. For this purpose, we employed the SafetyScreen44 in vitro panel comprising selected binding, inhibition and uptake assays.^[ [35] ^] The panel is a specialized pharmacological profiling tool that tests compounds against 44 key molecular targets, aiming to identify potential safety risks early in drug discovery. […]
The off-target Safety Screen44TM was performed by the CRO Eurofins Cerep SA (Celle-
L'Evescault, France) according to their protocols.[13] […]
MMP-1 MMP-2 MMP-3 TACE (ADAM17)
Compound [% inhibition at [% inhibition at [% inhibition at [% inhibition at 100

T1 sequence (P23219 24-599): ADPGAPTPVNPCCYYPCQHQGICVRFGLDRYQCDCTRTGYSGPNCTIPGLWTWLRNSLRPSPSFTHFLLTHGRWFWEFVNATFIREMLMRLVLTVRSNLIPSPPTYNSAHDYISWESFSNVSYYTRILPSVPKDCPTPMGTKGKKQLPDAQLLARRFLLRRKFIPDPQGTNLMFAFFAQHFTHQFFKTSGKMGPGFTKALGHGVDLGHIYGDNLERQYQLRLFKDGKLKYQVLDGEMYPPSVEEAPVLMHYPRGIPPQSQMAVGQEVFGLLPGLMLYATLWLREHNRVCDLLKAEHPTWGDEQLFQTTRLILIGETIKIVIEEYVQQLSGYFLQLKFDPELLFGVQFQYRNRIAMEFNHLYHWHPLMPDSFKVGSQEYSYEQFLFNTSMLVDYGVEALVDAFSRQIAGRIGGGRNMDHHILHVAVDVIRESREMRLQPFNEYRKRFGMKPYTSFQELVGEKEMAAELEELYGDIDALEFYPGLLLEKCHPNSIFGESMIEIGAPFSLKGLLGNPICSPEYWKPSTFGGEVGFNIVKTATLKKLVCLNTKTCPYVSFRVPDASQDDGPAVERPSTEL

CC(=O)c1ccc(NC(=O)[C@@H](NC(=O)[C@@H](CC(C)C)P(=O)(O)O)C(C)C)cc1 [(R)‐30]
inhibition at 100 µM: 81.5%
